From ChEMBL document CHEMBL5143732 (J Med Chem, 2022)

Legend:
[1] = Aqueous solubility of compound at pH 6.8; type: physicochemical; settings: buffer
[2] = Aggregation property of the compound in PBS at 7.4 pH assessed as dimerization at 5.4 uM by UV/vis double-beam spectrometer analysis; type: physicochemical; settings: buffer, pH 7.4, 5.4 µM
Cytochrome P450 1A2 = molecular target: T1, Cytochrome P450 1A2 (Homo sapiens, UniProt P05177); assay: Inhibition of CYP1A2 in human liver microsome using Phenacetin as substrate preincubated for 10 mins followed by NADPH addition and measured after 15 mins by LC-MS/MS analysis; type: ADME, microsomes
T1 sequence (P05177 whole entry): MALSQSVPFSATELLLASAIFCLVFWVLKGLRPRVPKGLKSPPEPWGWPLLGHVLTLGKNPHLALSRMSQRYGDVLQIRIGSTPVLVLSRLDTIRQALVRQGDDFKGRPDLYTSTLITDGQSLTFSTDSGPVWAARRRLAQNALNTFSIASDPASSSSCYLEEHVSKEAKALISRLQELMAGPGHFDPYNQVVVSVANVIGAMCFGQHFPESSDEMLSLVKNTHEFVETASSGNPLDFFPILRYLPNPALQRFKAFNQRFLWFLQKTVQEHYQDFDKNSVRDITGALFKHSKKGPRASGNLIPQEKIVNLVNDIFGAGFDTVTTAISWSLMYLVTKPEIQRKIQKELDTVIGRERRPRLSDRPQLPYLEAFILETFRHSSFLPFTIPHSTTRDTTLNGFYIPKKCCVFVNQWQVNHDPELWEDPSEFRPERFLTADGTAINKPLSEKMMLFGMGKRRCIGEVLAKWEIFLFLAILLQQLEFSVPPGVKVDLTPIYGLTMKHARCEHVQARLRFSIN

Cytochrome P450 2C9 = Cytochrome P450 2C9 (Homo sapiens, UniProt P11712); assay: Inhibition of CYP2C9 in human liver microsome using tolbutamide as substrate preincubated for 10 mins followed by NADPH addition and measured after 15 mins by LC-MS/MS analysis; type: ADME, microsomes
Sequence of Cytochrome P450 2C9 (P11712 whole entry): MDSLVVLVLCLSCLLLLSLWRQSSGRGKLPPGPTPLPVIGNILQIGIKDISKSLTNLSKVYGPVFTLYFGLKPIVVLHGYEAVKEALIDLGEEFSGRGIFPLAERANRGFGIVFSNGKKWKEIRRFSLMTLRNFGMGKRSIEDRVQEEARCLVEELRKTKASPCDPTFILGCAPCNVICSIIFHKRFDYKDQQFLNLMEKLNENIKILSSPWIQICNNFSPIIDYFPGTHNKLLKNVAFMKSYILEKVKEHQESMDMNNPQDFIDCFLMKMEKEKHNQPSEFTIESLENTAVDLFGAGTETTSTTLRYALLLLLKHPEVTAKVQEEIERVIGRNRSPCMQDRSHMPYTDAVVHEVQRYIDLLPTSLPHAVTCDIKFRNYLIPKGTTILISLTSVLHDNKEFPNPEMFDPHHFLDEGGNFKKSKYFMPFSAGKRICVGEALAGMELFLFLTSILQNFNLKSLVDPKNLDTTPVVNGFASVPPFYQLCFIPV

Cytochrome P450 2C19 = Cytochrome P450 2C19 (Homo sapiens, UniProt P33261); assay: Inhibition of CYP2C19 in human liver microsome using mephenytoin as substrate preincubated for 10 mins followed by NADPH addition and measured after 15 mins by LC-MS/MS analysis; type: ADME, microsomes
Sequence of Cytochrome P450 2C19 (P33261 whole entry): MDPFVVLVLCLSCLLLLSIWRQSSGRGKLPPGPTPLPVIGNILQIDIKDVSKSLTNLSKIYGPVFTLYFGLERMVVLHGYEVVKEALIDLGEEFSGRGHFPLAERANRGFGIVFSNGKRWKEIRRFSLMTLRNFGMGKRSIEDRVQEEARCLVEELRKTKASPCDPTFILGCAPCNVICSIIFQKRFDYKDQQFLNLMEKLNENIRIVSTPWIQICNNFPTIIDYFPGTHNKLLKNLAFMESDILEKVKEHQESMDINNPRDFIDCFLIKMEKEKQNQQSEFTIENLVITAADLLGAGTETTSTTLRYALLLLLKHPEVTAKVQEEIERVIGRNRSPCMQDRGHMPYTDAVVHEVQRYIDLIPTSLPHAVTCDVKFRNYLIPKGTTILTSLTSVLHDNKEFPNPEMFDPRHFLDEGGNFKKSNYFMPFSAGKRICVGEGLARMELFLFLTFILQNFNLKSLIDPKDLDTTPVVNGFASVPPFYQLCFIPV

Cytochrome P450 2D6 = Cytochrome P450 2D6 (Homo sapiens, UniProt P10635); assay: Inhibition of CYP2D6 in human liver microsome using dextromethorphan as substrate preincubated for 10 mins followed by NADPH addition and measured after 15 mins by LC-MS/MS analysis; type: ADME, microsomes
Sequence of Cytochrome P450 2D6 (P10635 whole entry): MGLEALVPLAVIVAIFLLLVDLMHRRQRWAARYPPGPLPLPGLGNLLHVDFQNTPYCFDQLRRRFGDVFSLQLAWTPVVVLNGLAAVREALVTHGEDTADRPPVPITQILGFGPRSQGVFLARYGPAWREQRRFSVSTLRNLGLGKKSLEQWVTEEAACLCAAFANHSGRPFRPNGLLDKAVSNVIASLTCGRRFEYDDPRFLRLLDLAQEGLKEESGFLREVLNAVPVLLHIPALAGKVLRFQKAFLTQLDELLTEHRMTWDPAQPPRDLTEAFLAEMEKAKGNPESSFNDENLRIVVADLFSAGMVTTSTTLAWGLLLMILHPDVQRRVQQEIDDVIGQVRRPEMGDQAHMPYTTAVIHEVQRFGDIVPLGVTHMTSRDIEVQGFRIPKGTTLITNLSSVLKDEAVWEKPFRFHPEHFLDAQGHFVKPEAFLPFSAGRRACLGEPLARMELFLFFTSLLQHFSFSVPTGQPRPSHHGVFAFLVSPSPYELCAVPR

Cytochrome P450 3A4 = Cytochrome P450 3A4 (Homo sapiens, UniProt P08684); assay: Inhibition of CYP3A4 in human liver microsome using midazolam and testostrone as substrate preincubated for 10 mins followed by NADPH addition and measured after 15 mins by LC-MS/MS analysis; type: ADME, microsomes
Sequence of Cytochrome P450 3A4 (P08684 whole entry): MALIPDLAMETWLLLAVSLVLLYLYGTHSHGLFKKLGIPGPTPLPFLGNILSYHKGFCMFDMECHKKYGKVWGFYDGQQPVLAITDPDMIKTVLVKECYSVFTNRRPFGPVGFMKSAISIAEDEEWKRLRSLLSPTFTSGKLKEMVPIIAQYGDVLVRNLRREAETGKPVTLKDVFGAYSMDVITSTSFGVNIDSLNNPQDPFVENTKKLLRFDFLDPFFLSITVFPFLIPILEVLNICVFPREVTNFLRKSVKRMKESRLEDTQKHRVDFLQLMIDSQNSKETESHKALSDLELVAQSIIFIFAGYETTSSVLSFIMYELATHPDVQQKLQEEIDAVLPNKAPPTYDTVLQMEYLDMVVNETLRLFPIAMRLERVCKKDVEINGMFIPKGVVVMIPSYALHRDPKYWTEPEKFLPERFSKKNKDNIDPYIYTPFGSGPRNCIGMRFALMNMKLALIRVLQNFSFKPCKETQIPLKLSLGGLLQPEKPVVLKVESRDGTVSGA

[3] = molecular target: Voltage-gated inwardly rectifying potassium channel KCNH2 (Homo sapiens, UniProt Q12809); assay: Inhibition of hERG expressed in CHO cells at -80 mV holding potential by automated patch clamp method; type: toxicity, cell-based
Sequence of Voltage-gated inwardly rectifying potassium channel KCNH2 (Q12809 whole entry): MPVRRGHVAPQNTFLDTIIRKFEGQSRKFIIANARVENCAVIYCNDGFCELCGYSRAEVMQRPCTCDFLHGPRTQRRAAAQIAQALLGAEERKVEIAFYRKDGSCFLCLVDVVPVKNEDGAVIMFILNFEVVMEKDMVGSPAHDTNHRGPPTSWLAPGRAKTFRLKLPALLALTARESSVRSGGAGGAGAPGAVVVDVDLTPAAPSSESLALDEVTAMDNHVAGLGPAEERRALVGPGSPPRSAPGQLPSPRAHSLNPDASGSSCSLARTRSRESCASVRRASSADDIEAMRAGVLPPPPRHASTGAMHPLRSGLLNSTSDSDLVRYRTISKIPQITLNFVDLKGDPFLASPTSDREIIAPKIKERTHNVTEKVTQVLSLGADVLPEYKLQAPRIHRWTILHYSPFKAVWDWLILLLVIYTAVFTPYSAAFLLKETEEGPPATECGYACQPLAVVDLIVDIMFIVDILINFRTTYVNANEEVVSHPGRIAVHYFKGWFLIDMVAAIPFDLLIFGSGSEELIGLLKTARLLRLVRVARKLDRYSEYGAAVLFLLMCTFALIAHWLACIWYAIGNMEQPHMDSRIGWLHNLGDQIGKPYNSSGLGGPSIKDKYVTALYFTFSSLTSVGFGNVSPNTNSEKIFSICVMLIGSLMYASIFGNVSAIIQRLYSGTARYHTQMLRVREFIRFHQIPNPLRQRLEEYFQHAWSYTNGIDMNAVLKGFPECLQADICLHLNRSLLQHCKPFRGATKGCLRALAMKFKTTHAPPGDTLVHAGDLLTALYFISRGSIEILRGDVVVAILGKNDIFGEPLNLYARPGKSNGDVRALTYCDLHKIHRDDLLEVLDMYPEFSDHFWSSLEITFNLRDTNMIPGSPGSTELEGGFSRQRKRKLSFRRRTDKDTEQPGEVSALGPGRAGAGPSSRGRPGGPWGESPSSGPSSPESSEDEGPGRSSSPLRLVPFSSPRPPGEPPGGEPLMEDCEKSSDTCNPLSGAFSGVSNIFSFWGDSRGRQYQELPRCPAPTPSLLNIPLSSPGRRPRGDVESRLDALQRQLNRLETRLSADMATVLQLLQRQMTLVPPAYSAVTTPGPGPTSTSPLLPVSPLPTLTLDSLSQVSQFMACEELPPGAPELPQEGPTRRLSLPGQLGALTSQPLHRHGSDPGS

SMILES: CNCC(=O)N[C@@H]1[C@H](O)[C@H](O[C@H]2/C=C/C=C/C=C/C=C/C=C/C=C/C=C/[C@H](C)[C@@H](O)[C@@H](C)[C@H](C)OC(=O)C[C@H](O)C[C@H](O)CC[C@@H](O)[C@H](O)C[C@H](O)C[C@]3(O)C[C@H](O)[C@@H](C(=O)NCCN)[C@H](C2)O3)O[C@H](C)[C@H]1O.NC(CCC(=O)O)C(=O)O
- solubility [1]: 106 mg/mL
- Activity [2]: Active
- IC50 (Cytochrome P450 1A2): > 25 µM
- IC50 (Cytochrome P450 2C9): > 50 µM
- IC50 (Cytochrome P450 2C19): > 50 µM
- IC50 (Cytochrome P450 2D6): > 50 µM
- IC50 (Cytochrome P450 3A4): 36.9 µM
- IC50 [3]: > 13.3 µM
